Molecules are shown by their SMILES. pIC50: −log10 of the molar value.

Usually pIC50 stands for the IC50 on a negative log10 scale, so that one unit is a factor of ten. Low readings indicate a high IC50, high ones a low IC50. By inhibition is commonly meant the drop in the measured response relative to a control, in per cent.

The target in experiment [1] is plasma dipeptidylpeptidase IV (UniProt P27487). Description: In vitro dipeptidylpeptidase IV inhibition (H-Gly-Pro-AMC hydrolysis, fluorometry). Conditions: plasma diluted 8-fold, H-Gly-Pro-AMC.HBr substrate, room temperature 20 minutes. Type of experiment: biochemical. As to the method:
The concentration of free 7-amino-4-methyl-coumarin (AMC) generated by hydrolysis of H-Gly-Pro-AMC.HBr substrate by plasma dipeptidylpeptidase IV was determined by fluorometry.
A 20 μL of buffer (25 mmol/L hepes, 140 mmol/L sodium chloride, 1% bovine serum albumin, 80 mmol/L magnesium chloride hexahydrate, pH 7.4) containing each compound was added to 20 μL of plasma diluted 8-fold with saline in a well of a 96-well flat bottom plate. The plate was left at room temperature for 5 minutes and 10 μL of 0.1 mmol/L H-Gly-Pro-AMC.HBr solution was added to each well to initiate the reaction. […] Using a fluorescent plate reader, the free AMC concentration was determined by exciting the samples at 355 nm and measuring the fluorescence intensity at 460 nm.

The target in experiment [2] is T1, plasma dipeptidylpeptidase IV (Mus musculus, UniProt P28843).
T1 construct: The blood samples were centrifuged at 6000 rpm for 2 minutes to separate plasma; tissue Charles River Laboratories Japan; host or cells: plasma of male ICR mice
T1 sequence (P28843 37-760 limits assumed): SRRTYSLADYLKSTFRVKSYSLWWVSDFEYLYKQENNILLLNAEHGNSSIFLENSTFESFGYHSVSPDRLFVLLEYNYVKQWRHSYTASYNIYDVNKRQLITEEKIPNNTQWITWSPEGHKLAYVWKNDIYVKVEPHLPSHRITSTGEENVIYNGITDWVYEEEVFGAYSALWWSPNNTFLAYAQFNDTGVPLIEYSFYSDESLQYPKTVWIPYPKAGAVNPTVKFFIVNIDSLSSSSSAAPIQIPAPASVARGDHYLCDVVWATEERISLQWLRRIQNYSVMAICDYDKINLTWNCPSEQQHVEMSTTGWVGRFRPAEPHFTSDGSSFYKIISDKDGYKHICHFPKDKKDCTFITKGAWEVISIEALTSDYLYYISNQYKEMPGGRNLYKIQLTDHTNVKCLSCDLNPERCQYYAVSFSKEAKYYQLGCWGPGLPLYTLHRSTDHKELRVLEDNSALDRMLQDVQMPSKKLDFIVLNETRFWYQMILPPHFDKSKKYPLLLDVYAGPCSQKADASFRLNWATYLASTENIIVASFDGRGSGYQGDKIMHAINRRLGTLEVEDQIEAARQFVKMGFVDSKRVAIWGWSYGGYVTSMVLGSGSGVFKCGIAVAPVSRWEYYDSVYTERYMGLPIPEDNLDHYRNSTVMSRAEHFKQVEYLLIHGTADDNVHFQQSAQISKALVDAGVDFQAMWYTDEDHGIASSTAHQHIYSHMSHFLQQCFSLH
Description: Inhibition of plasma dipeptidylpeptidase IV activity in mice by oral administration. The format is in vivo. The conditions noted are these: male ICR mice, 0.1 mg/mL at 10 mL/kg, plasma 30 minutes after administration vs before. As to the method:
Each compound was suspended in 0.3% sodium carboxymethylcellulose to a concentration of 0.1 mg/mL. The preparation was orally administered to 8-week old male ICR mice (Charles River Laboratories Japan) at a dose of 10 mL/kg. Using an EDTA 2K-treated capillary tube, blood samples were collected from the tail vein before administration and 30 minutes after administration. The blood samples were centrifuged at 6000 rpm for 2 minutes to separate plasma. […] The inhibition was determined from the decrease in the enzymatic activity from the initial activity (% inhibition={(activity before administration−activity after administration)/(activity before administration)}×100).

Turning to `C=CCNC(=O)C12CCC(NCC(=O)N3C[C@@H](F)C[C@H]3C#N)(CC1)CC2` [Example 52, (2S,4S)-4-fluoro-1-[[N-[4-[N-(2-propenyl)amino]carbonylbicyclo[2.2.2]oct-1-yl]amino]acetyl]pyrrolidine-2-carbonitrile], the pIC50 in experiment [1] is 10.24. In experiment [2], the inhibition at 100 µg/mL (stock) was 70%.

For the compound `N#C[C@@H]1C[C@H](F)CN1C(=O)CNC12CCC(C(=O)N3CC[C@@H](F)C3)(CC1)CC2` [Example 16, (2S,4S,3′ R)-4-fluoro-1-[[N-[4-(3-fluoropyrrolidin-1-yl)carbonylbicyclo[2.2.2]oct-1-yl]amino]acetyl]pyrrolidine-2-carbonitrile], the pIC50 in experiment [1] is 10.09.

Regarding `N#C[C@@H]1C[C@H](F)CN1C(=O)CNC12CCC(C(=O)N3CCC3)(CC1)CC2` [Example 15, (2S,4S)-1-[[[4-(azetidin-1-yl)carbonylbicyclo[2.2.2]oct-1-yl]amino]acetyl]-4-fluoropyrrolidine-2-carbonitrile], the inhibition at 100 µg/mL (stock) in experiment [2] stood at 66%.

In turn, `CC(C)(C)NC(=O)C12CCC(NCC(=O)N3C[C@@H](F)C[C@H]3C#N)(CC1)CC2` [Example 30, (2S,4S)-1-[[N-[4-(N-2,2-dimethylethylamino)carbonylbicyclo[2.2.2]oct-1-yl]amino]acetyl]-4-fluoropyrrolidine-2-carbonitrile] had an inhibition at 100 µg/mL (stock) in experiment [2] of 77%.

As for `N#C[C@@H]1C[C@H](F)CN1C(=O)CNC12CCC(C(N)=O)(CC1)CC2` [Example 1, (2S,4S)-1-[[(4-carbamoylbicyclo[2.2.2]oct-1-yl)amino]acetyl]-4-fluoropyrrolidine-2-carbonitrile], in experiment [1], the pIC50 was 9.05. In experiment [2], this compound registered an inhibition at 100 µg/mL (stock) of 71%.

Take `CN1CCN(C(=O)C23CCC(NCC(=O)N4C[C@@H](F)C[C@H]4C#N)(CC2)CC3)CC1` [Example 8, (2S,4S)-4-fluoro-1-[[N-[4-(4-methylpiperazin-1-yl)carbonylbicyclo[2.2.2]oct-1-yl]amino]acetyl]pyrrolidine-2-carbonitrile]: the negative logarithm of the IC50 (pIC50) in experiment [1] is 9.08.

As for `CN(C)C(=O)C12CCC(NCC(=O)N3C[C@@H](F)C[C@H]3C#N)(CC1)CC2` [Example 9, (2S,4S)-1-[[N-[4-(dimethylamino)carbonylbicyclo[2.2.2]oct-1-yl]amino]acetyl]-4-fluoropyrrolidine-2-carbonitrile], the inhibition at 100 µg/mL (stock) in experiment [2] was 87%.

For the origin of these results see patent US7560569B2, “Bicycloamide derivative” (Kyorin Pharmaceutical Co., Ltd, priority 2004, dated 2009).
